The target in the assay is recombinant CaMKIIδ (Homo sapiens (Human), UniProt Q13557). As to the kind of experiment: CaMKIIδ biochemical assay (HTRF). The note with it: 10 pM CaMKIIδ, 110 nM calmodulin, 12 μM ATP, 1 hour; read-out: CAMKIID-HTRF-384V2 (IC50 - nM). On the procedure:
CaMKIIδ Biochemical Assay
The biochemical activity of recombinant CaMKIIδ was measured by monitoring the phosphorylation of a target peptide using Homogenous Time Resolved Fluorescence (HTRF) technology from CisBio Bioassays.

As usually defined, the IC50 is the concentration at which inhibition is half-maximal.

With `CCN(CC)[C@@H](C)CNC(=O)c1cc(-c2cnn3ccc(-c4ccccc4)nc23)nc(N2CC[C@H]2C(=O)NC)c1` [Example 309, N—((S)-2-(diethylamino)propyl)-2-((S)-2-(methylcarbamoyl)azetidin-1-yl)-6-(5-phenylpyrazolo[1,5-a]pyrimidin-3-yl)isonicotinamide], the IC50 is 2.16 nM.
The figure for `CCN(CC)[C@@H](C)CNC(=O)c1cc(-c2cnn3ccc(-c4cccs4)nc23)nc(N2CCC[C@@H]2C(N)=O)c1` [Example 269, 2-((R)-2-carbamoylpyrrolidin-1-yl)-N—((S)-2-(diethylamino)propyl)-6-(5-(thiophen-2-yl)pyrazolo[1,5-a]pyrimidin-3-yl)isonicotinamide] is 6.05 nM.
The value for `CCN(CC)[C@@H](C)CNC(=O)c1cc(N[C@H](C)C(N)=O)nc(-c2cnn3ccc(-c4cccs4)nc23)c1` [Example 235, 2-(((R)-1-amino-1-oxopropan-2-yl)amino)-N—((S)-2-(diethylamino)propyl)-6-(5-(thiophen-2-yl)pyrazolo[1,5-a]pyrimidin-3-yl)isonicotinamide] was 1.83 nM.
Consider `O=C(c1ccnc(-c2cnn3ccc(-c4ccccc4)nc23)c1)N1C2CCCC1CNCC2` (centres unmarked) [Example 91], for which the 50% inhibitory concentration (IC50) stood at 32.8 nM.
The figure for `CCN(CC)[C@@H](C)CNC(=O)c1cc(-c2cnn3ccc(-c4cccs4)nc23)nc(N2CCC(C(N)=O)CC2)c1` [Example 263, (S)-2-(4-carbamoylpiperidin-1-yl)-N-(2-(diethylamino)propyl)-6-(5-(thiophen-2-yl)pyrazolo[1,5-a]pyrimidin-3-yl)isonicotinamide] is 0.51 nM; for `CCN(CC)[C@@H](C)CNC(=O)c1cc(-c2cnn3ccc(-c4cccs4)nc23)nc(N2CCC23COC3)c1` [Example 234, (S)—N-(2-(diethylamino)propyl)-2-(6-oxa-1-azaspiro[3.3]heptan-1-yl)-6-(5-(thiophen-2-yl)pyrazolo[1,5-a]pyrimidin-3-yl)isonicotinamide] it is 1.28 nM; for `CCN(CC)[C@@H](C)CNC(=O)c1cc(-c2cnn3ccc(-c4cccs4)nc23)nc(N2CC(NS(=O)(=O)C3CC3)C2)c1` [Example 154, (S)-2-(3-(cyclopropanesulfonamido)azetidin-1-yl)-N-(2-(diethylamino)propyl)-6-(5-(thiophen-2-yl)pyrazolo[1,5-a]pyrimidin-3-yl)isonicotinamide] it is 0.28 nM.
The figure for `COC1CN(c2cc(C(=O)NC[C@@H]3CCCN3C)cc(-c3cnn4ccc(-c5cccs5)nc34)n2)C1` [Example 257, (S)-2-(3-methoxyazetidin-1-yl)-N-((1-methylpyrrolidin-2-yl)methyl)-6-(5-(thiophen-2-yl)pyrazolo[1,5-a]pyrimidin-3-yl)isonicotinamide] is 284 nM.
The value for `O=C(NC[C@@H]1C[C@H](F)CN1)c1ccnc(-c2cnn3ccc(-c4cccs4)nc23)c1` [Example 5, N-(((2S,4S)-4-fluoropyrrolidin-2-yl)methyl)-2-(5-(thiophen-2-yl)pyrazolo[1,5-a]pyrimidin-3-yl)isonicotinamide] was 12.7 nM; that for `CCN(CC)[C@@H](C)CNC(=O)c1cc(-c2cnn3ccc(-c4cccs4)nc23)nc(N2C[C@@H]3C[C@H]2CO3)c1` [Example 253, 2-((1S,4S)-2-oxa-5-azabicyclo[2.2.1]heptan-5-yl)-N—((S)-2-(diethylamino)propyl)-6-(5-(thiophen-2-yl)pyrazolo[1,5-a]pyrimidin-3-yl)isonicotinamide] was 0.38 nM.
On to `CCN(CC)[C@@H](C)CNC(=O)c1cc(-c2cnn3ccc(-c4cccs4)nc23)nc(N2CC3(CCC3(F)F)C2)c1` [Example 249, (S)—N-(2-(diethylamino)propyl)-2-(5,5-difluoro-2-azaspiro[3.3]heptan 2 yl)-6-(5-(thiophen-2-yl)pyrazolo[1,5-a]pyrimidin-3-yl)isonicotinamide], for which the IC50 was found to be 0.2 nM.
The value for `COc1cc(C(=O)N2CCCC[C@@H]2CN)cc(-c2cnn3ccc(-c4ccccc4)nc23)n1` [Example 132, (R)-(2-(aminomethyl)piperidin-1-yl)(2-methoxy-6-(5-phenylpyrazolo[1,5-a]pyrimidin-3-yl)pyridin-4-yl)methanone] was 32.7 nM; that for `CCN(CC)[C@@H](C)CNC(=O)c1cc(-c2cnn3ccc(-c4cccs4)nc23)nc(N2CC[C@H]2C(=O)NOC)c1` [Example 289, N—((S)-2-(diethylamino)propyl)-2-((S)-2-(methoxycarbamoyl)azetidin-1-yl)-6-(5-(thiophen-2-yl)pyrazolo[1,5-a]pyrimidin-3-yl)isonicotinamide] was 0.65 nM; that for `NC[C@H]1CCCN1C(=O)c1ccnc(-c2cnn3ccc(-c4cccs4)nc23)c1` [Example 79, (R)-(2-(aminomethyl)pyrrolidin-1-yl)(2-(5-(thiophen-2-yl)pyrazolo[1,5-a]pyrimidin-3-yl)pyridin-4-yl)methanone] was 2.85 nM.
Take `CCN(CC)[C@@H](C)CNC(=O)c1cc(-c2cnn3ccc(-c4cccs4)nc23)nc(N2CC(NC)C2)c1` [Example 205, (S)—N-(2-(diethylamino)propyl)-2-(3-(methylamino)azetidin-1-yl)-6-(5-(thiophen-2-yl)pyrazolo[1,5-a]pyrimidin-3-yl)isonicotinamide]: the IC50 was found to be 0.1 nM.
The value for `O=C(c1ccnc(-c2cnn3ccc(-c4ccccc4)nc23)c1)N1CCCCC12CCNC2` (centres unmarked) [Example 89, (2-(5-phenylpyrazolo[1,5-a]pyrimidin-3-yl)pyridin-4-yl)(2,6-diazaspiro[4.5]decan-6-yl)methanone] was 13.6 nM; that for `CCN(CC)[C@@H](C)CNC(=O)c1cc(-c2cnn3ccc(-c4cccs4)nc23)nc(N2CC[C@H]2CO)c1` [Example 268, N—((S)-2-(diethylamino)propyl)-2-((S)-2-(hydroxymethyl)azetidin-1-yl)-6-(5-(thiophen-2-yl)pyrazolo[1,5-a]pyrimidin-3-yl)isonicotinamide] was 0.06 nM; that for `CCN(CC)[C@@H](C)CNC(=O)c1cc(-c2cnn3ccc(-c4cccs4)nc23)nc(N2CCC[C@@H]2CO)c1` [Example 272, N—((S)-2-(diethylamino)propyl)-2-((R)-2-(hydroxymethyl)pyrrolidin-1-yl)-6-(5-(thiophen-2-yl)pyrazolo[1,5-a]pyrimidin-3-yl)isonicotinamide] was 0.14 nM.
The figure for `CCN(CC)[C@@H](C)CNC(=O)c1cc(-c2cnn3ccc(-c4cccs4)nc23)nc(N2CC[C@H]2C(=O)NCC(F)F)c1` [Example 282, N—((S)-2-(diethylamino)propyl)-2-((S)-2-((2,2-difluoroethyl)carbamoyl)azetidin-1-yl)-6-(5-(thiophen-2-yl)pyrazolo[1,5-a]pyrimidin-3-yl)isonicotinamide] is 0.47 nM.
The figure for `N[C@@H]1CC[C@H]2CCCN(C(=O)c3ccnc(-c4cnn5ccc(-c6ccccc6)nc45)c3)[C@H]21` [Example 96, ((4aR,7R,7aR)-7-aminooctahydro-1H-cyclopenta[b]pyridin-1-yl)(2-(5-phenylpyrazolo[1,5-a]pyrimidin-3-yl)pyridin-4-yl)methanone] is 12.7 nM; for `C[C@@H](CNC(=O)c1ccnc(-c2cnn3ccc(-c4cccs4)nc23)c1)NCC(F)F` [Example 14, (S)—N-(2-((2,2-difluoroethyl)amino)propyl)-2-(5-(thiophen-2-yl)pyrazolo[1,5-a]pyrimidin-3-yl)isonicotinamide] it is 23.8 nM; for `CN(C)c1cc(C(=O)N2CCCC[C@@H]2CN)cc(-c2cnn3ccc(-c4ccccc4)nc23)n1` [Example 118, (R)-(2-(aminomethyl)piperidin-1-yl)(2-(dimethylamino)-6-(5-phenylpyrazolo[1,5-a]pyrimidin-3-yl)pyridin-4-yl)methanone] it is 5.29 nM.
Turning to `CC1(C)CNC1CNC(=O)c1ccnc(-c2cnn3ccc(-c4ccccc4)nc23)c1` (centres unmarked) [Example 41, N-((3,3-dimethylazetidin-2-yl)methyl)-2-(5-phenylpyrazolo[1,5-a]pyrimidin-3-yl)isonicotinamide], the half-inhibitory concentration (IC50) was 119 nM.
The figure for `CCC(CNC(=O)c1ccnc(-c2cnn3ccc(-c4cccs4)nc23)c1)NC(C)C` (centres unmarked) [Example 31, N-(2-(isopropylamino)butyl)-2-(5-(thiophen-2-yl)pyrazolo[1,5-a]pyrimidin-3-yl)isonicotinamide] is 12.1 nM.
The figure for `O=C(c1ccnc(-c2cnn3ccc(-c4cccs4)nc23)c1)N1CCC[C@@H]2CCNC[C@@H]21` [Example 101, ((4aR,8aR)-octahydro-1,7-naphthyridin-1(2H)-yl)(2-(5-(thiophen-2-yl)pyrazolo[1,5-a]pyrimidin-3-yl)pyridin-4-yl)methanone] is 9.54 nM.
The value for `Nc1cc(C(=O)N2C3CCNCC2CC3)cc(-c2cnn3ccc(-c4cccs4)nc23)n1` (centres unmarked) [Example 129, (2-amino-6-(5-(thiophen-2-yl)pyrazolo[1,5-a]pyrimidin-3-yl)pyridin-4-yl)(-3,9-diazabicyclo[4.2.1]nonan-9-yl)methanone] was 1.55 nM; that for `CCN(CC)[C@@H](C)CNC(=O)c1cc(NCc2ncc[nH]2)nc(-c2cnn3ccc(-c4cccs4)nc23)c1` [Example 237, (S)-2-(((1H-imidazol-2-yl)methyl)amino)-N-(2-(diethylamino)propyl)-6-(5-(thiophen-2-yl)pyrazolo[1,5-a]pyrimidin-3-yl)isonicotinamide] was 0.13 nM; that for `CCN(CC)[C@@H](C)CNC(=O)c1cc(-c2cn[nH]c2)nc(-c2cnn3ccc(-c4cccs4)nc23)c1` [Example 340, (S)—N-(2-(diethylamino)propyl)-2-(1H-pyrazol-4-yl)-6-(5-(thiophen-2-yl)pyrazolo[1,5-a]pyrimidin-3-yl)isonicotinamide] was 0.05 nM.
`CCN(CC)[C@@H](C)CNC(=O)c1cc(-c2cnn3ccc(-c4cccs4)nc23)nc(N2CC(S(=O)(=O)NC3CC3)C2)c1` [Example 151, (S)-2-(3-(N-cyclopropylsulfamoyl)azetidin-1-yl)-N-(2-(diethylamino)propyl)-6-(5-(thiophen-2-yl)pyrazolo[1,5-a]pyrimidin-3-yl)isonicotinamide]: the half-inhibitory concentration (IC50) was 0.32 nM.

The values above are taken from patent publication US10100058B2, “Fused heterocyclic compounds as CaM kinase inhibitors” (Gilead Sciences, Inc., priority 2016, dated 2018).
